# Laboratory results reported in patent US8440672B2, “Diphenyl substituted alkanes” (Merck Sharp & Dohme Corp., priority 2006, dated 2013).
# Molecular target: T1, FLAP (Homo sapiens, UniProt P20292)
# T1 construct: A 100,000×g pellet from human leukocyte 10,000×g supernatants (1) is the source of FLAP; from tissue; host or cells: human leukocytes (100,000 x g membrane pellet)
# T1 sequence (P20292 1-161): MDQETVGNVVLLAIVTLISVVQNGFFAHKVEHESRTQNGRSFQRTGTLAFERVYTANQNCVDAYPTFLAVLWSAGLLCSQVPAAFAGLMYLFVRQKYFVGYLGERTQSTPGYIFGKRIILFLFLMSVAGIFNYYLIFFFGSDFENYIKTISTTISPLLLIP
# Test: FLAP Binding Assay
# Conditions: competition with radiolabelled Compound A; 100,000×g pellet membranes from human leukocyte; 20 minute incubation at room temperature
# Method: A 100,000×g pellet from human leukocyte 10,000×g supernatants (1) is the source of FLAP. The 100,000×g pellet membranes were resuspended in Tris-Tween assay buffer (100 mM Tris HCl pH 7.4, 140 mM NaCl, 2 mM EDTA, 0.5 mM dithiothreitol, 5% glycerol, 0.05% Tween 20) to yield a final protein concentration of 50 μg to 150 μg/ml. Aliquots (100 μl) of membrane suspension were added to 12 mm×75 mm polypropylene tubes containing 100 μl Tris-Tween assay buffer, 30,000 cpm of Compound A in 5 μl MeOH:assay buffer (1:1), and 2 μl dimethyl sulfoxide or competitor (i.e., the compound to be tested) in dimethyl sulfoxide. Compound B (10 μM final concentration) was used to determine non-specific binding. After a 20 minute incubation at room temperature, tube contents were diluted to 4 ml with cold 0.1 M Tris HCl pH 7.4, 0.05% Tween 20 wash buffer and the membranes were collected by filtration of GFB filters presoaked in the wash buffer. Tubes and filters were rinsed with 2×4 ml aliquots of cold wash buffer. Filters were transferred to 12 mm×3.5 mm polystyrene tubes for determination of radioactivity by gamma-scintillation counting.
# Specific binding is defined as total binding minus non-specific binding. Total binding was Compound A bound to membranes in the absence of competitor; non-specific binding was Compound A bound in the presence of 10 uM Compound B. Preparation of Compound A is described in reference 1, below. The IC50 values were obtained by computer analysis (see reference 2, below) of the experimental data.
row,SMILES,IC50
1,"CC(C)C(C)(c1ccc(-c2cnc(N)nc2)cc1)c1ccc(C(C)(C)O)cn1 (stereo not shown) [Example 7Ad, 2-(6-{1-[4-(2-aminopyrimidin-5-yl)phenyl]-1,2-dimethylpropyl}pyridin-3-yl)propan-2-ol]",1.2 nM
2,"CC(C)C(C)(c1ccc(OCc2ccccn2)cc1)c1ccc(-c2ccc(C(C)(C)O)nn2)cn1 (stereo not shown) [Example 10Aj, 2-[6-(6-{1,2-dimethyl-1-[4-(pyridin-2-ylmethoxy)phenyl]propyl}pyridin-3-yl)pyridazin-3-yl]propan-2-ol]",0.7 nM
3,"CC(C)C(C)(c1ccc(OCc2nccs2)cc1)c1ccc(-c2noc(C(C)(C)O)n2)cn1 (stereo not shown) [Example 10Ca, 2-[3-(6-{1,2-dimethyl-1-[4-(1,3-thiazol-2-ylmethoxy)phenyl]propyl}pyridin-3-yl)-1,2,4-oxadiazol-5-yl]propan-2-ol]",2.9 nM
4,"CC(C)C(C)(c1ccc(-c2ccc(N)nn2)cc1)c1ccc(-c2ccc(C(C)(C)O)nn2)cn1 (stereo not shown) [Example 4g, 2-[6-(6-{1-[4-(6-aminopyridazin-3-yl)phenyl]-1,2-dimethylpropyl}pyridin-3-yl)pyridazin-3-yl]propan-2-ol]",0.6 nM
5,"Cn1nnc(-c2ccc(C(c3ccc(OCc4ccccn4)cc3)C(C)(C)C)nc2)n1 (stereo not shown) [Example 9b, 2-{2,2-dimethyl-1-[4-(pyridin-2-ylmethoxy)phenyl]propyl}-5-(2-methyl-2H-tetrazol-5-yl)pyridine]",14 nM
6,"COC(=O)c1ccc(-c2ccc(C(C)(c3ccc(OCc4ccccn4)cc3)C(C)C)nc2)nn1 (stereo not shown) [Example 10Ah, methyl 6-(6-{1,2-dimethyl-1-[4-(pyridin-2-ylmethoxy)phenyl]propyl}pyridin-3-yl)pyridazine-3-carboxylate]",0.7 nM
7,"CC(C)C(C)(c1ccc(-c2ccc(N)nn2)cc1)c1ccc(C(C)(C)O)cn1 (stereo not shown) [Example 7Bd, 2-(6-(1-[4-(6-aminopyridazin-3-yl)phenyl]-1,2-dimethylpropyl)pyridin-3-yl)propan-2-ol]",2.3 nM
8,"CC(C)(C)C(c1ccc(OCc2ccccn2)cc1)c1ccc(-c2nnc(N)o2)cn1 (stereo not shown) [Example 8a, 5-(6-{2,2-dimethyl-1-[4-(pyridin-2-ylmethoxy)phenyl]pronyl}pyridin-3-yl)-1,3,4-oxadiazol-2-amine]",5.8 nM

# Second part, the compound after the results:
row,IC50,SMILES
1,0.7 nM,"COc1cncc(-c2ccc(C(C)(c3ccc(-c4ccc(S(C)(=O)=O)nn4)cn3)C(C)C)cc2)c1 (stereo not shown) [Example 5a, 3-(6-{1-[4-(5-methoxypyridin-3-yl)phenyl]-1,2-dimethylpropyl}pyridin-3-yl)-6-(methylsulfonyl)pyridazine]"
2,2.4 nM,"CC(C)C(C)(c1ccc(-c2cncc(OCc3ccccc3)c2)cc1)c1ccc(-c2ccc(C(F)(F)F)nn2)cn1 (stereo not shown) [Example 6Da, 3-[6-(1-{4-[5-(benzyloxy)pyridin-3-yl]phenyl}-1,2-dimethylpropyl)pyridin-3-yl]-6-(trifluoromethyl)pyridazine]"
3,3.6 nM,COc1cncc(-c2ccc(C(C)(c3ccc(-c4noc(C5(N)CC5)n4)cn3)C(C)C)cc2)c1 (stereo not shown) [Example 2b]
4,1.4 nM,"COc1cncc(-c2ccc(C(C)(c3ccc(-c4ccc(C(F)(F)F)nn4)cn3)C(C)C)cc2)c1 (stereo not shown) [Example 4Ad, 3-(6-{1-[4-(5-methoxypyridin-3-yl)phenyl]-1,2-dimethylpropyl}pyridin-3-yl)-6-(trifluoromethyl)pyridazine]"
5,1.1 nM,"COc1cncc(-c2ccc(C(C)(c3ccc(-c4ccc(C(C)(C)O)nn4)cn3)C(C)C)cc2)c1 (stereo not shown) [Example 4d, 2-[6-(6-{1-[4-(5-methoxypyridin-3-yl)phenyl]-1,2-dimethylpropyl}pyridin-3-yl)pyridazin-3-yl]propan-2-ol]"
6,2.1 nM,"COc1cncc(-c2ccc(C(C)(c3ccc(-c4noc(C(C)(C)O)n4)cn3)C(C)C)cc2)c1 (stereo not shown) [Example 1Ac, 2-[3-(6-{1-[4-(5-methoxypyridin-3-yl)phenyl]-1,2-dimethylpropyl}pyridin-3-yl)-1,2,4-oxadiazol-5-yl]propan-2-ol]"
7,2.8 nM,"CC(C)C(C)(c1ccc(-c2cncc(OCF)c2)cc1)c1ccc(-c2ccc(C(F)(F)F)nn2)cn1 (stereo not shown) [Example 6c, 3-[6-(1-{4-[5-(fluoromethoxy)pyridin-3-yl]phenyl}-1,2-dimethylpropyl)pyridin-3-yl]-6-(trifluoromethyl)pyridazine]"
8,0.5 nM,"CC(C)C(C)(c1ccc(-c2cnc(N)nc2)cc1)c1ccc(-c2ccc(C(C)(C)O)nn2)cn1 (stereo not shown) [Example 4f, 2-[6-(6-{1-[4-(2-aminopyrimidin-5-yl)phenyl]-1,2-dimethylpropyl}pyridin-3-yl)pyridazin-3-yl]propan-2-ol]"
